Test results from ChEMBL document CHEMBL3046801, “Synthesis of 2-R1-2-(4-(2-fluoroethoxy)benzamido)acetate as potential PET imaging agents” (Med Chem Res, 2012).

What was measured:
Heart [1] = assay: Biodistribution in tumor bearing Mus musculus KM (mouse) heart at 120 min by microPET imaging analysis; format: ADME, organism-based; details: in vivo, 2 h
Heart [2] = assay: Biodistribution in tumor bearing Mus musculus KM (mouse) heart at 5 min by microPET imaging analysis; format: ADME, organism-based; details: in vivo
Blood [3] = assay: Biodistribution in tumor bearing Mus musculus KM (mouse) blood at 120 min by microPET imaging analysis; format: ADME, organism-based; details: in vivo, 2 h
Spleen [4] = assay: Biodistribution in tumor bearing Mus musculus KM (mouse) spleen at 15 min by microPET imaging analysis; format: ADME, organism-based; details: in vivo, 0.25 h
Blood [5] = assay: Biodistribution in tumor bearing Mus musculus KM (mouse) blood at 5 min by microPET imaging analysis; format: ADME, organism-based; details: in vivo
Liver [6] = assay: Biodistribution in tumor bearing Mus musculus KM (mouse) liver at 120 min by microPET imaging analysis; format: ADME, organism-based; details: in vivo, 2 h
Tumour [7] = assay: Biodistribution in Mus musculus KM (mouse) tumor at 60 min by microPET imaging analysis; format: ADME, organism-based, Neoplasm; details: in vivo, 1 h
Nucleic Acid [8] = assay: Ratio of drug uptake in tumor to muscle in Mus musculus KM (mouse) at 60 min; format: ADME, nucleic-acid assay; details: in vivo, 1 h
Nucleic Acid [9] = assay: Ratio of drug uptake in tumor to muscle in Mus musculus KM (mouse) at 15 min; format: ADME, nucleic-acid assay; details: in vivo, 0.25 h
Blood [10] = assay: Biodistribution in tumor bearing Mus musculus KM (mouse) blood at 30 min by microPET imaging analysis; format: ADME, organism-based; details: in vivo, 0.5 h
Brain [11] = assay: Biodistribution in tumor bearing Mus musculus KM (mouse) brain at 30 min by microPET imaging analysis; format: ADME, organism-based; details: in vivo, 0.5 h
Lung [12] = assay: Biodistribution in tumor bearing Mus musculus KM (mouse) Lung at 15 min by microPET imaging analysis; format: ADME, organism-based; details: in vivo, 0.25 h
Tumour [13] = assay: Biodistribution in Mus musculus KM (mouse) tumor at 30 min by microPET imaging analysis; format: ADME, organism-based, Neoplasm; details: in vivo, 0.5 h
Nucleic Acid [14] = assay: Ratio of drug uptake in tumor to muscle in Mus musculus KM (mouse) at 120 min; format: ADME; details: in vivo, 2 h
Blood [15] = assay: Biodistribution in tumor bearing Mus musculus KM (mouse) blood at 15 min by microPET imaging analysis; format: ADME, organism-based; details: in vivo, 0.25 h
Liver [16] = assay: Biodistribution in tumor bearing Mus musculus KM (mouse) liver at 30 min by microPET imaging analysis; format: ADME, organism-based; details: in vivo, 0.5 h
Muscle tissue [17] = assay: Biodistribution in tumor bearing Mus musculus KM (mouse) muscle at 60 min by microPET imaging analysis; format: ADME, organism-based; details: in vivo, 1 h
Brain [18] = assay: Biodistribution in tumor bearing Mus musculus KM (mouse) brain at 5 min by microPET imaging analysis; format: ADME, organism-based; details: in vivo
Blood [19] = assay: Biodistribution in tumor bearing Mus musculus KM (mouse) blood at 60 min by microPET imaging analysis; format: ADME, organism-based; details: in vivo, 1 h
Kidney [20] = assay: Biodistribution in tumor bearing Mus musculus KM (mouse) kidney at 60 min by microPET imaging analysis; format: ADME, organism-based; details: in vivo, 1 h
Spleen [21] = assay: Biodistribution in tumor bearing Mus musculus KM (mouse) spleen at 30 min by microPET imaging analysis; format: ADME, organism-based; details: in vivo, 0.5 h
Spleen [22] = assay: Biodistribution in tumor bearing Mus musculus KM (mouse) spleen at 5 min by microPET imaging analysis; format: ADME, organism-based; details: in vivo
Heart [23] = assay: Biodistribution in tumor bearing Mus musculus KM (mouse) heart at 15 min by microPET imaging analysis; format: ADME, organism-based; details: in vivo, 0.25 h
Muscle tissue [24] = assay: Biodistribution in tumor bearing Mus musculus KM (mouse) muscle at 30 min by microPET imaging analysis; format: ADME, organism-based; details: in vivo, 0.5 h
Spleen [25] = assay: Biodistribution in tumor bearing Mus musculus KM (mouse) spleen at 120 min by microPET imaging analysis; format: ADME, organism-based; details: in vivo, 2 h
Brain [26] = assay: Biodistribution in tumor bearing Mus musculus KM (mouse) brain at 60 min by microPET imaging analysis; format: ADME, organism-based; details: in vivo, 1 h
Kidney [27] = assay: Biodistribution in tumor bearing Mus musculus KM (mouse) kidney at 5 min by microPET imaging analysis; format: ADME, organism-based; details: in vivo
Muscle tissue [28] = assay: Biodistribution in tumor bearing Mus musculus KM (mouse) muscle at 15 min by microPET imaging analysis; format: ADME, organism-based; details: in vivo, 0.25 h
Brain [29] = assay: Biodistribution in tumor bearing Mus musculus KM (mouse) brain at 15 min by microPET imaging analysis; format: ADME, organism-based; details: in vivo, 0.25 h
Heart [30] = assay: Biodistribution in tumor bearing Mus musculus KM (mouse) heart at 60 min by microPET imaging analysis; format: ADME, organism-based; details: in vivo, 1 h
Liver [31] = assay: Biodistribution in tumor bearing Mus musculus KM (mouse) liver at 5 min by microPET imaging analysis; format: ADME, organism-based; details: in vivo
Muscle tissue [32] = assay: Biodistribution in tumor bearing Mus musculus KM (mouse) muscle at 120 min by microPET imaging analysis; format: ADME, organism-based; details: in vivo, 2 h
Lung [33] = assay: Biodistribution in tumor bearing Mus musculus KM (mouse) Lung at 120 min by microPET imaging analysis; format: ADME, organism-based; details: in vivo, 2 h
Nucleic Acid [34] = assay: Ratio of drug uptake in tumor to muscle in Mus musculus KM (mouse) at 30 min; format: ADME, nucleic-acid assay; details: in vivo, 0.5 h
Liver [35] = assay: Biodistribution in tumor bearing Mus musculus KM (mouse) liver at 15 min by microPET imaging analysis; format: ADME, organism-based; details: in vivo, 0.25 h
Tumour [36] = assay: Biodistribution in Mus musculus KM (mouse) tumor at 5 min by microPET imaging analysis; format: ADME, organism-based, Neoplasm; details: in vivo
Liver [37] = assay: Biodistribution in tumor bearing Mus musculus KM (mouse) liver at 60 min by microPET imaging analysis; format: ADME, organism-based; details: in vivo, 1 h
Lung [38] = assay: Biodistribution in tumor bearing Mus musculus KM (mouse) Lung at 30 min by microPET imaging analysis; format: ADME, organism-based; details: in vivo, 0.5 h
Kidney [39] = assay: Biodistribution in tumor bearing Mus musculus KM (mouse) kidney at 15 min by microPET imaging analysis; format: ADME, organism-based; details: in vivo, 0.25 h
Spleen [40] = assay: Biodistribution in tumor bearing Mus musculus KM (mouse) spleen at 60 min by microPET imaging analysis; format: ADME, organism-based; details: in vivo, 1 h
Brain [41] = assay: Biodistribution in tumor bearing Mus musculus KM (mouse) brain at 120 min by microPET imaging analysis; format: ADME, organism-based; details: in vivo, 2 h
Lung [42] = assay: Biodistribution in tumor bearing Mus musculus KM (mouse) Lung at 5 min by microPET imaging analysis; format: ADME, organism-based; details: in vivo
Kidney [43] = assay: Biodistribution in tumor bearing Mus musculus KM (mouse) kidney at 120 min by microPET imaging analysis; format: ADME, organism-based; details: in vivo, 2 h
Muscle tissue [44] = assay: Biodistribution in tumor bearing Mus musculus KM (mouse) muscle at 5 min by microPET imaging analysis; format: ADME, organism-based; details: in vivo
Tumour [45] = assay: Biodistribution in Mus musculus KM (mouse) tumor at 15 min by microPET imaging analysis; format: ADME, organism-based, Neoplasm; details: in vivo, 0.25 h
Tumour [46] = assay: Biodistribution in Mus musculus KM (mouse) tumor at 120 min by microPET imaging analysis; format: ADME, organism-based, Neoplasm; details: in vivo, 2 h
Heart [47] = assay: Biodistribution in tumor bearing Mus musculus KM (mouse) heart at 30 min by microPET imaging analysis; format: ADME, organism-based; details: in vivo, 0.5 h
Kidney [48] = assay: Biodistribution in tumor bearing Mus musculus KM (mouse) kidney at 30 min by microPET imaging analysis; format: ADME, organism-based; details: in vivo, 0.5 h
Lung [49] = assay: Biodistribution in tumor bearing Mus musculus KM (mouse) Lung at 60 min by microPET imaging analysis; format: ADME, organism-based; details: in vivo, 1 h

- Drug uptake (Heart [1]): 9.6 % ID/g
- Drug uptake (Heart [2]): 5.33 % ID/g
- Drug uptake (Blood [3]): 0.15 % ID/g
- Drug uptake (Spleen [4]): 1.98 % ID/g
- Drug uptake (Blood [5]): 2.01 % ID/g
- Drug uptake (Liver [6]): 0.49 % ID/g
- Drug uptake (Tumour [7]): 3.86 % ID/g
- Ratio (Nucleic Acid [8]): 1.94
- Ratio (Nucleic Acid [9]): 1.28
- Drug uptake (Blood [10]): 0.29 % ID/g
- Drug uptake (Brain [11]): 4.25 % ID/g
- Drug uptake (Lung [12]): 1.96 % ID/g
- Drug uptake (Tumour [13]): 3.16 % ID/g
- Ratio (Nucleic Acid [14]): 1.74
- Drug uptake (Blood [15]): 0.94 % ID/g
- Drug uptake (Liver [16]): 0.46 % ID/g
- Drug uptake (Muscle tissue [17]): 1.99 % ID/g
- Drug uptake (Brain [18]): 3.81 % ID/g
- Drug uptake (Blood [19]): 0.19 % ID/g
- Drug uptake (Kidney [20]): 0.9 % ID/g
- Drug uptake (Spleen [21]): 1.75 % ID/g
- Drug uptake (Spleen [22]): 1.92 % ID/g
- Drug uptake (Heart [23]): 6.12 % ID/g
- Drug uptake (Muscle tissue [24]): 2.08 % ID/g
- Drug uptake (Spleen [25]): 1.35 % ID/g
- Drug uptake (Brain [26]): 3.51 % ID/g
- Drug uptake (Kidney [27]): 3.36 % ID/g
- Drug uptake (Muscle tissue [28]): 2.33 % ID/g
- Drug uptake (Brain [29]): 4.55 % ID/g
- Drug uptake (Heart [30]): 8.87 % ID/g
- Drug uptake (Liver [31]): 1.85 % ID/g
- Drug uptake (Muscle tissue [32]): 1.85 % ID/g
- Drug uptake (Lung [33]): 1.05 % ID/g
- Ratio (Nucleic Acid [34]): 1.52
- Drug uptake (Liver [35]): 0.92 % ID/g
- Drug uptake (Tumour [36]): 1.96 % ID/g
- Drug uptake (Liver [37]): 0.5 % ID/g
- Drug uptake (Lung [38]): 1.4 % ID/g
- Drug uptake (Kidney [39]): 2.05 % ID/g
- Drug uptake (Spleen [40]): 1.83 % ID/g
- Drug uptake (Brain [41]): 1.89 % ID/g
- Drug uptake (Lung [42]): 2.37 % ID/g
- Drug uptake (Kidney [43]): 0.52 % ID/g
- Drug uptake (Muscle tissue [44]): 2.92 % ID/g
- Drug uptake (Tumour [45]): 2.97 % ID/g
- Drug uptake (Tumour [46]): 3.12 % ID/g
- Drug uptake (Heart [47]): 6.42 % ID/g
- Drug uptake (Kidney [48]): 1.07 % ID/g
- Drug uptake (Lung [49]): 1.52 % ID/g
SMILES: OC[C@H]1OC(O)[C@H]([18F])[C@@H](O)[C@@H]1O (some centres undefined) [FLUDEOXYGLUCOSE F 18]
